From patent US20110294722A1, “ANTIMICROBIAL PEPTIDES” (priority 2008, published 2011)
Read-outs that look alike come from different tables or passages of the source. No end group written: not given here.

How the values were obtained:
Type in all cases: cell-based
[1] = test system: Pseudomonas corrugata; conditions: Pseudomonas corrugata; for MIC (>90% inhibition): 1-2 days at 25° C.; for LC (lethal concentration, 100% inhibition): at least 4 days of incubation
Protocol: (§1) In-vitro inhibition assays were performed in sterile flat-bottom 96-well plates (Greiner bio-one, Frickenhausen). Antimicrobial peptides were dissolved in 0.01% acetic acid containing 0.2% BSA (500 μg/ml), filter sterilized and stored at −20° C. For inhibition assays dilutions of peptides ranging from 5 to 200 μg/ml were prepared and 10 μl (antibacterial assay) or 20 (antifungal assay) of each concentration was loaded per well.
(§2) Bacteria colonies from overnight agar plate cultures were resuspended into 5 ml LB-medium or HPG-medium (OD600 nm=0.08-0.1) and diluted into LB-medium/HPG-medium (1:100). 90 μl of this suspension containing about 10^5-10^6 CFU/ml of tested bacteria were added to each well resulting in final peptide concentrations of 0, 0.5, 1, 2, 5, 10, and 20 μg/ml. […] The lowest concentration, in which there is no observable growth (>90% inhibition) is referred to as minimal inhibitory concentration (MIC). […] For each peptide concentration two identical inhibition assays were performed.

[2] = test system: Pseudomonas syringae pv. tomato; conditions: for LC (lethal concentration, 100% inhibition): at least 4 days of incubation
Protocol: as §1, §2

[3] = test system: Pseudomonas syringae pv. syringae; conditions: Pseudomonas syringae pv. syringae; for MIC (>90% inhibition): 1-2 days at 25° C.; for LC (lethal concentration, 100% inhibition): at least 4 days of incubation
Protocol: as §1, §2

[4] = test system: Pectobacterium carotovorum; conditions: Pectobacterium carotovorum; for MIC (>90% inhibition): 1-2 days at 25° C.; for LC (lethal concentration, 100% inhibition): at least 4 days of incubation
Protocol: as §1, §2

[5] = test system: Clavibacter michiganensis; experiment: In-vitro inhibition assay (MIC and LC), Example 3; conditions: for MIC (>90% inhibition): 1-2 days at 25° C.; for LC (lethal concentration, 100% inhibition): at least 4 days of incubation
Protocol: as §1, §2

[6] = test system: Xanthomonas vesicatoria; experiment: In-vitro inhibition assay (MIC and LC), Example 3; conditions: for MIC (>90% inhibition): 1-2 days at 25° C.; for LC (lethal concentration, 100% inhibition): at least 4 days of incubation
Protocol: as §1, §2

[7] = test system: Botrytis cinerea; experiment: In-vitro inhibition assay (MIC), Example 2; conditions: visual screening
Protocol: as §1, with “or 20 μl (antifungal assay)” for “or 20 (antifungal assay)”
(§3) Spores of fungi were collected by water washes of sporulating cultures grown on 2% malt extract agar and spore concentration was determined by microscopy. The concentration of the spores was adjusted to 1.5-2×10^3 spores/ml in 2% malt extract medium and 80 μl of fungal spores were added per well. The final peptide concentrations used in the fungal inhibition assays were […]. After overnight incubation at room temperature the plate were put on a rotary shaker (300 rpm) for further two days to ensure consistantly growth. Antifungal effects of the peptides were determined by a microplate reader (Alternaria, Fusarium) at OD590 nm or by visual screening of the plates (Botrytis, Cladosporium).
(§4) The lowest peptide concentration leading to complete inhibition of bacterial growth or spore germination/mycelial growth (minimal inhibition concentration, MIC) was determined for each organism-peptide combination. For each peptide concentration two identical inhibition assays were performed.

[8] = test system: Cladosporium herbarum; experiment: In-vitro inhibition assay (MIC), Example 2; conditions: visual screening
Protocol: as §1, with “or 20 μl (antifungal assay)” for “or 20 (antifungal assay)”
as §3, §4

[9] = test system: Alternaria alternata; experiment: In-vitro inhibition assay (MIC), Example 2; conditions: OD590 nm
Protocol: as §1, with “or 20 μl (antifungal assay)” for “or 20 (antifungal assay)”
as §3, §4

[10] = Pseudomonas syringae pv. tomato, 1-2 days at 25° C.
[11] = Pseudomonas syringae pv. tomato

| Substance | MIC (>90% inhibition) [1] | LC (lethal concentration, 100% inhibition) [1] | MIC (>90% inhibition) [2] | MIC (>90% inhibition) [3] | LC (lethal concentration, 100% inhibition) [3] | MIC (>90% inhibition) [4] | LC (lethal concentration, 100% inhibition) [4] | MIC (>90% inhibition) [5] | LC (lethal concentration, 100% inhibition) [5] | MIC (>90% inhibition) [6] | LC (lethal concentration, 100% inhibition) [6] | MIC (>90% inhibition) [2, 10] | LC (lethal concentration, 100% inhibition) [2, 11] | Minimal inhibition concentration (MIC) for complete inhibition of spore germination/mycelial growth [7] | Minimal inhibition concentration (MIC) for complete inhibition of spore germination/mycelial growth [8] | Minimal inhibition concentration (MIC) for complete inhibition of spore germination/mycelial growth [9] |
| --- | --- | --- | --- | --- | --- | --- | --- | --- | --- | --- | --- | --- | --- | --- | --- | --- |
| RKKKFKIFKRLF-NH2 [SP1-14] | 0.5 µg/mL | 1.0 µg/mL | 1.0 to 5.0 µg/mL | < 0.1 µg/mL | 0.5 µg/mL | >10/>10 μg/ml | >10/>10 μg/ml | 1.0 µg/mL | 2.5 µg/mL | 1.0 µg/mL | 2.5 µg/mL |  |  |  |  |  |
| RKKRKKLLKRLL-NH2 [SP1-18] | 0.25 µg/mL | 0.5 µg/mL |  | 0.1 µg/mL | 5.0 µg/mL | >10/>10 μg/ml | >10/>10 μg/ml | 5.0/5.0 μg/ml | 5.0/5.0 μg/ml | 5.0 µg/mL | 10 µg/mL | 1.0 µg/mL | 0.5 µg/mL |  |  |  |
| RKRFARFAKRAV-NH2 [Sp3] |  |  |  |  |  |  |  |  |  |  |  |  |  | >100 µg/mL | 40 µg/mL | >100 µg/mL |
| RKKKKKIIKKLI-NH2 [SP1-21] | 2.5 µg/mL | 5.0 µg/mL |  | 0.5 µg/mL | 2.5 µg/mL | >10/>10 μg/ml | >10/>10 μg/ml | >10/>10 μg/ml | >10/>10 μg/ml | >10/>10 μg/ml | >10/>10 μg/ml | 2.5 µg/mL | 5.0 µg/mL |  |  |  |
| RKKRVKLLKRLV-NH2 [SP1-2] | 0.5 µg/mL | 2.5 µg/mL |  | 2.5 µg/mL | 5.0 µg/mL | >10/>10 μg/ml | >10/>10 μg/ml | 10/>10 μg/ml | 10/>10 μg/ml | 5.0 µg/mL | > 10 µg/mL | 5.0/5.0 μg/ml | 5.0/5.0 μg/ml |  |  |  |
| RKKRKKLIKRLI-NH2 [Sp1-19] | 0.5 µg/mL | 1.0 µg/mL |  | < 0.1 µg/mL | 5.0 µg/mL | >10/>10 μg/ml | >10/>10 μg/ml | 5.0/5.0 μg/ml | 5.0/5.0 μg/ml | 5.0 µg/mL | > 10 µg/mL | >10/>10 μg/ml | >10/>10 μg/ml |  |  |  |
